Laboratory results as given in US20240173419A1, “CDK2 DEGRADERS AND USES THEREOF” (Kymera Therapeutics, Inc., priority 2022, published 2024).

Target: T1, CDK2 (Homo sapiens, UniProt P24941)
T1 construct: endogenous in cells; host or cells: MKN1 cells
Test: CDK2 degradation in MKN1 cells (AlphaLISA)
Assay type: cell-based
Parameters: key to CDK2 degradation 14 h: Mean external-Abs DC50 (nM): A (<100 nM); B (≥100-500 nM); C (>500-1000 nM); D (>1000 nM); E (not achieved)
Conditions: 14 h incubation; for DC50: read-out: CDK2 degradation 14 h: Mean external-Abs DC50
Method in brief: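 DC50 from four-parameter logistic fit of AlphaLISA CDK2 signal, corrected for no-cell wells. Lysates came from MKN1 cells, 2e4 per well, exposed 14 h at 37° C to compound at 0.001 nM-10 μM (1:5 series, 11 doses) in 0.1% DMSO.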

CDK2 degradation 14 h: Average Dmax % | DC50 [nM] | CDK2 degradation 14 h: Mean external-Abs DC50 (nM) | Compound
B (B (>50% -75%)) | < 100 | – | Cc1cc(S(=O)(=O)N2CCC(CN3CCN(Cc4cccc5c4n(C)c(=O)n5C4CCC(=O)NC4=O)CC3)CC2)ccc1Nc1ncc2ccc(=O)n(C3CCCC3)c2n1 (stereo not drawn) [I-452]
D (D (<25%)) | > 1000 | – | Cc1cc(S(=O)(=O)N2CCC(OCCCc3ccc4c(c3)n(C)c(=O)n4C3CCC(=O)NC3=O)CC2)ccc1Nc1ncc2ccc(=O)n(C3CCCC3)c2n1 (stereo not drawn) [I-453]
C (C (>25% -50%)) | > 1000 | – | Cc1cc(S(=O)(=O)N2CCC(OCCCc3cccc4c3n(C)c(=O)n4C3CCC(=O)NC3=O)CC2)ccc1Nc1ncc2ccc(=O)n(C3CCCC3)c2n1 (stereo not drawn) [I-454]
D (D (<25%)) | > 1000 | – | Cc1cc(S(=O)(=O)N2CCC(OCC#Cc3cccc4c3n(C)c(=O)n4C3CCC(=O)NC3=O)CC2)ccc1Nc1ncc2cc(Cl)c(=O)n(C3CCCC3)c2n1 (stereo not drawn) [I-455]
B (B (>50% -75%)) | 100 to 500 | – | Cc1cc(S(=O)(=O)N2CCC3(CCN(Cc4cccc5c4n(C)c(=O)n5C4CCC(=O)NC4=O)CC3)CC2)ccc1Nc1ncc2ccc(=O)n(C3CCCC3)c2n1 (stereo not drawn) [I-458]
B (B (>50% -75%)) | 100 to 500 | – | Cc1cc(S(=O)(=O)N2CCN(CCCCOCCCc3ccc4c(c3)n(C)c(=O)n4C3CCC(=O)NC3=O)CC2)ccc1Nc1ncc2ccc(=O)n(C3CCCC3)c2n1 (stereo not drawn) [I-459]
A (A (>75% o)) | < 100 | – | Cc1cc(S(=O)(=O)N2CC(OCCN3CCC(c4ccc5c(c4)n(C)c(=O)n5C4CCC(=O)NC4=O)CC3)C2)ccc1Nc1ncc2ccc(=O)n(C3CCCC3)c2n1 (stereo not drawn) [I-462]
C (C (>25% -50%)) | – | E | Cc1cc(S(=O)(=O)N2CC3(CC(OCCN4CCC(c5ccc6c(c5)n(C)c(=O)n6C5CCC(=O)NC5=O)CC4)C3)C2)ccc1Nc1ncc2ccc(=O)n(C3CCCC3)c2n1 (stereo not drawn) [I-463]
B (B (>50% -75%)) | < 100 | – | Cc1cc(S(=O)(=O)N2CCC(N3CCN(CCCc4ccc5c(c4)n(C)c(=O)n5C4CCC(=O)NC4=O)CC3)CC2)ccc1Nc1ncc2ccc(=O)n(C3CCCC3)c2n1 (stereo not drawn) [I-464]
A (A (>75% o)) | < 100 | – | Cc1cc(S(=O)(=O)NCCOC2CCC(CN3CCC(c4ccc5c(c4)n(C)c(=O)n5C4CCC(=O)NC4=O)CC3)CC2)ccc1Nc1ncc2ccc(=O)n(C3CCCC3)c2n1 (stereo not drawn) [I-468]
A (A (>75% o)) | < 100 | – | Cc1cc(S(=O)(=O)NCCOC2CCC3(CC2)CCN(CCCc2ccc4c(c2)n(C)c(=O)n4C2CCC(=O)NC2=O)CC3)ccc1Nc1ncc2ccc(=O)n(C3CCCC3)c2n1 (stereo not drawn) [I-470]
A (A (>75% o)) | < 100 | – | Cc1cc(S(=O)(=O)NCCOC2CC3(C2)CN(CCCc2ccc4c(c2)n(C)c(=O)n4C2CCC(=O)NC2=O)C3)ccc1Nc1ncc2ccc(=O)n(C3CCCC3)c2n1 (stereo not drawn) [I-472]
A (A (>75% o)) | < 100 | – | Cc1cc(S(=O)(=O)NCCOC2CC3(C2)CN(CC#Cc2ccc4c(c2)n(C)c(=O)n4C2CCC(=O)NC2=O)C3)ccc1Nc1ncc2ccc(=O)n(C3CCCC3)c2n1 (stereo not drawn) [I-473]

The next lines start with the compound.

Compound | CDK2 degradation 14 h: Average Dmax % | DC50 [nM] | CDK2 degradation 14 h: Mean external-Abs DC50 (nM)
Cc1cc(S(=O)(=O)NCCOCCOCCOCCOCCCc2ccc3c(c2)n(C)c(=O)n3C2CCC(=O)NC2=O)ccc1Nc1ncc2c(C)c(Br)c(=O)n(C3CCCC3)c2n1 (stereo not drawn) [I-460] | B (B (>50% -75%)) | < 100 | –
Cc1cc(S(=O)(=O)NCCOCCOCCOCCCc2ccc3c(c2)n(C)c(=O)n3C2CCC(=O)NC2=O)ccc1Nc1ncc2cc(Cl)c(=O)n(C3CCCC3)c2n1 (stereo not drawn) [I-461] | A (A (>75% o)) | < 100 | –
Cc1cc(S(=O)(=O)NCCOCCOCCCc2ccc3c(c2)n(C)c(=O)n3C2CCC(=O)NC2=O)ccc1Nc1ncc2c(C)cc(=O)n(C3CCCC3)c2n1 (stereo not drawn) [I-466] | D (D (<25%)) | > 1000 | –
Cc1cc(S(=O)(=O)NCCOCCOCCOCCOCCCc2ccc3c(c2)n(C)c(=O)n3C2CCC(=O)NC2=O)ccc1Nc1ncc2c(C)cc(=O)n(C3CCCC3)c2n1 (stereo not drawn) [I-467] | C (C (>25% -50%)) | – | E
Cc1cc(S(=O)(=O)NCCOC2CCC(N(C)CC3CCN(c4ccc5c(c4)n(C)c(=O)n5C4CCC(=O)NC4=O)CC3)CC2)ccc1Nc1ncc2ccc(=O)n(C3CCCC3)c2n1 (stereo not drawn) [I-469] | A (A (>75% o)) | < 100 | –
Cc1cc(S(=O)(=O)NCCOC2CCC3(CC2)CCN(CC#Cc2ccc4c(c2)n(C)c(=O)n4C2CCC(=O)NC2=O)CC3)ccc1Nc1ncc2ccc(=O)n(C3CCCC3)c2n1 (stereo not drawn) [I-471] | A (A (>75% o)) | < 100 | –
Cc1cc(S(=O)(=O)NCCOCCOCCOCCCc2ccc3c(c2)n(C)c(=O)n3C2CCC(=O)NC2=O)ccc1Nc1ncc2ccc(=O)n(C3CCCC3)c2n1 (stereo not drawn) [I-474] | A (A (>75% o)) | < 100 | –
Cc1cc(S(=O)(=O)NCCOCCOCCCc2ccc3c(c2)n(C)c(=O)n3C2CCC(=O)NC2=O)ccc1Nc1ncc2ccc(=O)n(C3CCCC3)c2n1 (stereo not drawn) [I-475] | A (A (>75% o)) | < 100 | –
Cc1cc(S(=O)(=O)NCCOCCOCCOCCOCCNc2cccc3c2C(=O)N(C2CCC(=O)NC2=O)C3=O)ccc1Nc1ncc2cc(C(F)F)c(=O)n(C3CCCC3(C)O)c2n1 (stereo not drawn) [I-483] | A (A (>75% o)) | < 100 | –
Cc1cc(S(=O)(=O)NCCOCCOCCCc2ccc3c(c2)n(C)c(=O)n3C2CCC(=O)NC2=O)ccc1Nc1ncc2cc(C(F)F)c(=O)n(C3CCCC3(C)O)c2n1 (stereo not drawn) [I-484] | A (A (>75% o)) | < 100 | –
Cc1cc(S(=O)(=O)NCCOCCOCCOCCOCCCc2ccc3c(c2)n(C)c(=O)n3C2CCC(=O)NC2=O)ccc1Nc1ncc2cc(C(F)F)c(=O)n(C3CCCC3(C)O)c2n1 (stereo not drawn) [I-486] | A (A (>75% o)) | < 100 | –
Cc1cc(S(=O)(=O)NCCOCCOCCCc2cccc3c2n(C)c(=O)n3C2CCC(=O)NC2=O)ccc1Nc1ncc2cc(C(F)F)c(=O)n([C@@H]3CCC[C@]3(C)O)c2n1 (stereo partly drawn) [I-487] | A (A (>75% o)) | < 100 | –
Cc1cc(NCCOCCOCCOCCOCCCc2cccc3c2n(C)c(=O)n3C2CCC(=O)NC2=O)ccc1Nc1ncc2cc(C(F)F)c(=O)n([C@@H]3CCC[C@]3(C)O)c2n1 (stereo partly drawn) [I-490] | A (A (>75% o)) | < 100 | –
C[C@]1(O)CCC[C@H]1n1c(=O)c(C(F)F)cc2cnc(NC3CCN(C(=O)COCCOCCNc4cccc5c4C(=O)N(C4CCC(=O)NC4=O)C5=O)CC3)nc21 (stereo partly drawn) [I-491] | D (D (<25%)) | > 1000 | –
C[C@]1(O)CCC[C@H]1n1c(=O)c(C(F)F)cc2cnc(NC3CCN(C(=O)COCCOCCOCCOCCNc4cccc5c4C(=O)N(C4CCC(=O)NC4=O)C5=O)CC3)nc21 (stereo partly drawn) [I-494] | D (D (<25%)) | > 1000 | –
Cn1c(=O)n(C2CCC(=O)NC2=O)c2cccc(CCCOCCOCC(=O)N3CCC(Nc4ncc5cc(C(F)F)c(=O)n([C@@H]6CCC[C@]6(C)O)c5n4)CC3)c21 (stereo partly drawn) [I-499] | D (D (<25%)) | > 1000 | –
Cn1c(=O)n(C2CCC(=O)NC2=O)c2cccc(CCCOCCOCCOCCOCC(=O)N3CCC(Nc4ncc5cc(C(F)F)c(=O)n([C@@H]6CCC[C@]6(C)O)c5n4)CC3)c21 (stereo partly drawn) [I-502] | D (D (<25%)) | > 1000 | –
